Source: the supplement of paper PMC10307832

Legend:
Experiment in all cases: relative viability (nuclei count vs DMSO), 5 days (fraction); higher = more cells survive
[1] = compound: COc1cc(Nc2c(C#N)cnc3cc(OCCCN4CCN(C)CC4)c(OC)cc23)c(Cl)cc1Cl [Bosutinib] + CC1(C)CCC(c2ccc(Cl)cc2)=C(CN2CCN(c3ccc(C(=O)NS(=O)(=O)c4ccc(N[C@H](CCN5CCOCC5)CSc5ccccc5)c(S(=O)(=O)C(F)(F)F)c4)cc3)CC2)C1 [Navitoclax] (partner 0.5 µM)
Procedure, shortened: (§1)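 The day after seeding in 1536-well plates, lung cancer cell lines were treated by pin tool with a single drug, or with a fixed anchor-drug dose together with five library-drug doses (not always all listed) in √10 steps. After 5 days, a combined fix-and-stain solution (final 0.05% Triton X-100, 1% formaldehyde, 1 ug/ml Hoechst) was added. Nuclei counted on 4× images gave relative viability as treated counts over vehicle counts, reported as the median of duplicate plates.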

[2] = compound: COc1cc(Nc2c(C#N)cnc3cc(OCCCN4CCN(C)CC4)c(OC)cc23)c(Cl)cc1Cl [Bosutinib] + COc1cc2c(Oc3ccc(NC(=O)C4(C(=O)Nc5ccc(F)cc5)CC4)cc3F)ccnc2cc1OCCCN1CCOCC1 [Foretinib] (partner 0.25 µM)
Procedure, shortened: as §1

[3] = compound: COc1cc(Nc2c(C#N)cnc3cc(OCCCN4CCN(C)CC4)c(OC)cc23)c(Cl)cc1Cl [Bosutinib] + Cc1nc(Nc2ncc(C(=O)Nc3c(C)cccc3Cl)s2)cc(N2CCN(CCO)CC2)n1 [Dasatinib] (partner 0.075 µM)
Procedure, shortened: as §1

[4] = compound: COc1cc(Nc2c(C#N)cnc3cc(OCCCN4CCN(C)CC4)c(OC)cc23)c(Cl)cc1Cl [Bosutinib] + Nc1ncn([C@H]2C[C@H](O)[C@@H](CO)O2)c(=O)n1 [Decitabine] (partner 2 µM)
Procedure, shortened: as §1

[5] = compound: COc1cc(Nc2c(C#N)cnc3cc(OCCCN4CCN(C)CC4)c(OC)cc23)c(Cl)cc1Cl [Bosutinib] + O=C(c1cc(Cc2n[nH]c(=O)c3ccccc23)ccc1F)N1CCN(C(=O)C2CC2)CC1 [Olaparib] (partner 8 µM)
Procedure, shortened: as §1

Cell Line | relative viability ([1]; first compound 0.01 µM) | relative viability ([1]; first compound 0.03162 µM) | relative viability ([1]; first compound 0.1 µM) | relative viability ([1]; first compound 1 µM) | relative viability ([2]; first compound 0.01 µM) | relative viability ([2]; first compound 0.03162 µM) | relative viability ([2]; first compound 0.1 µM) | relative viability ([2]; first compound 1 µM) | relative viability ([3]; first compound 0.01 µM) | relative viability ([3]; first compound 0.03162 µM) | relative viability ([3]; first compound 0.1 µM) | relative viability ([3]; first compound 1 µM) | relative viability ([4]; first compound 0.01 µM) | relative viability ([4]; first compound 0.03162 µM) | relative viability ([4]; first compound 0.1 µM) | relative viability ([4]; first compound 1 µM) | relative viability ([5]; first compound 0.01 µM) | relative viability ([5]; first compound 0.03162 µM) | relative viability ([5]; first compound 0.1 µM) | relative viability ([5]; first compound 1 µM)
NCI-H647 | 1.25 | 1.23 | 1.09 | 0.82 | 1.28 | 1.17 | 1.31 | 0.778 | 0.22 | 0.219 | 0.222 | 0.174 | 0.442 | 0.36 | 0.302 | 0.386 | 0.6 | 0.474 | 0.481 | 0.287
A-427 | 0.947 | 0.97 | 1.05 | 0.888 | 1.02 | 1 | 1.14 | 0.972 | 0.767 | 0.843 | 0.665 | 0.732 | 0.596 | 0.56 | 0.617 | 0.612 | 0.73 | 0.764 | 0.742 | 0.68
LXF-289 | 0.938 | 0.945 | 0.911 | 0.966 | 0.926 | 1 | 0.979 | 0.913 | 0.231 | 0.213 | 0.2 | 0.224 | 0.338 | 0.368 | 0.427 | 0.449 | 1.05 | 1.12 | 0.972 | 1.24
NCI-H727 | 0.429 | 0.519 | 0.437 | 0.291 | 0.91 | 0.859 | 0.639 | 0.568 | 0.374 | 0.321 | 0.32 | 0.31 | 0.848 | 1.03 | 0.909 | 0.764 | 0.6 | 0.87 | 0.69 | 0.563
NCI-H1437 | 1.13 | 1.11 | 1.01 | 0.918 | 1.23 | 1.2 | 1.14 | 1.1 | 0.392 | 0.384 | 0.4 | 0.338 | 0.536 | 0.567 | 0.572 | 0.482 | 0.609 | 0.635 | 0.604 | 0.545
RERF-LC-KJ | 0.845 | 1.08 | 0.893 | 0.743 | 0.893 | 0.888 | 0.815 | 0.867 | 0.746 | 0.882 | 0.826 | 0.735 | 0.643 | 0.656 | 0.645 | 0.737 | 0.883 | 0.867 | 0.958 | 0.989
EPLC-272H | 1.05 | 1.09 | 1.15 | 1.35 | 0.657 | 0.677 | 0.704 | 0.58 | 0.476 | 0.425 | 0.447 | 0.409 | 0.358 | 0.383 | 0.418 | 0.321 | 0.722 | 0.909 | 0.626 | 0.515
NCI-H596 | 1.06 | 0.86 | 1.18 | 0.785 | 0.745 | 0.857 | 0.721 | 0.855 | 0.595 | 0.721 | 0.704 | 0.637 | 1.03 | 1.07 | 1.05 | 0.876 | 0.73 | 0.715 | 0.705 | 0.564
NCI-H322M | 1.12 | 1.25 | 1.28 | 1.2 | 1.04 | 0.867 | 0.881 | 0.414 | 0.252 | 0.267 | 0.246 | 0.301 | 0.635 | 0.735 | 0.616 | 0.493 | 0.762 | 0.758 | 0.741 | 0.492
